# System: MV-4-11 cells
# Test: Gene expression microarray analysis (Affymetrix PrimeView) and GSEA
# Type: cell-based, human
# Design: RFU PODN (11730768_x_at) / Fold change /veh PODN (11730768_x_at) / RFU LINC00158 (11744669_a_at) / Fold change /veh LINC00158 (11744669_a_at) / RFU DUSP10 (11751237_a_at) / Fold change /veh DUSP10 (11751237_a_at) / RFU ID3 (11757404_x_at) / Fold change /veh ID3 (11757404_x_at) / RFU PLEKHG5 (11737974_s_at) / Fold change /veh PLEKHG5 (11737974_s_at) / RFU LRRC4B (11730491_at) / Fold change /veh LRRC4B (11730491_at) / RFU GIMAP4 (11747438_a_at) / Fold change /veh GIMAP4 (11747438_a_at) / RFU KRT8 (11758183_x_at) / Fold change /veh KRT8 (11758183_x_at) / RFU CNN1 (11734310_a_at) / Fold change /veh CNN1 (11734310_a_at) / RFU VPS37D (11726825_at) / Fold change /veh VPS37D (11726825_at) / RFU C10orf10 (11716522_x_at) / Fold change /veh C10orf10 (11716522_x_at) / RFU KIR2DL2 /// KIR2DL4 /// KIR2DL5A /// KIR2DL5B /// KIR2DS1 /// KIR2DS2 /// KIR2DS3 /// KIR2DS4 /// KIR3DL3 /// KIR3DL3 /// KIR3DS1 (11738374_at) / Fold change /veh KIR2DL2 /// KIR2DL4 /// KIR2DL5A /// KIR2DL5B /// KIR2DS1 /// KIR2DS2 /// KIR2DS3 /// KIR2DS4 /// KIR3DL3 /// KIR3DL3 /// KIR3DS1 (11738374_at) / RFU C1QL1 (11718748_at) / Fold change /veh C1QL1 (11718748_at) / RFU TMPRSS4 (11747572_a_at) / Fold change /veh TMPRSS4 (11747572_a_at) / RFU HAMP (11756126_x_at) / Fold change /veh HAMP (11756126_x_at) / RFU RNFT2 (11725882_a_at) / Fold change /veh RNFT2 (11725882_a_at) / RFU NR4A2 (11747474_a_at) / Fold change /veh NR4A2 (11747474_a_at) / RFU ABCC12 (11746883_a_at) / Fold change /veh ABCC12 (11746883_a_at) / RFU TMEM136 (11760407_x_at) / Fold change /veh TMEM136 (11760407_x_at) / RFU CLDN22 /// WWC2 (11732394_at) / Fold change /veh CLDN22 /// WWC2 (11732394_at) / RFU HLA-DPB1 (11760878_x_at) / Fold change /veh HLA-DPB1 (11760878_x_at) / RFU SPINT1 (11716480_a_at) / Fold change /veh SPINT1 (11716480_a_at) / RFU GAP43 (11754022_s_at) / Fold change /veh GAP43 (11754022_s_at) / RFU A4GNT (11735810_at) / Fold change /veh A4GNT (11735810_at) / RFU PRB3 (11715151_x_at) / Fold change /veh PRB3 (11715151_x_at) / RFU TUBB4B (11761932_at) / Fold change /veh TUBB4B (11761932_at) / RFU CAPN14 (11732068_a_at) / Fold change /veh CAPN14 (11732068_a_at) / RFU TMCC2 (11721928_a_at) / Fold change /veh TMCC2 (11721928_a_at) / RFU IRGQ (11745062_a_at) / Fold change /veh IRGQ (11745062_a_at) / RFU FAM174B (11720279_a_at) / Fold change /veh FAM174B (11720279_a_at) / RFU TMPRSS4 (11748680_a_at) / Fold change /veh TMPRSS4 (11748680_a_at) / RFU FAM212B (11763350_a_at) / Fold change /veh FAM212B (11763350_a_at) / RFU PLEKHG5 (11743358_a_at) / Fold change /veh PLEKHG5 (11743358_a_at) / RFU ZSCAN30 (11745921_a_at) / Fold change /veh ZSCAN30 (11745921_a_at) / RFU CMKLR1 (11741424_a_at) / Fold change /veh CMKLR1 (11741424_a_at) / RFU LOC101060620 /// MAPK8IP1 (11723275_at) / Fold change /veh LOC101060620 /// MAPK8IP1 (11723275_at) / RFU SPTSSB (11747773_x_at) / Fold change /veh SPTSSB (11747773_x_at) / RFU PRSS12 (11739890_at) / Fold change /veh PRSS12 (11739890_at) / RFU BIN1 (11741810_x_at) / Fold change /veh BIN1 (11741810_x_at) / RFU WNT11 (11732464_a_at) / Fold change /veh WNT11 (11732464_a_at) / RFU C10orf10 (11716521_a_at) / Fold change /veh C10orf10 (11716521_a_at) / RFU C5orf56 (11738089_at) / Fold change /veh C5orf56 (11738089_at) / RFU CYB561 (11721691_x_at) / Fold change /veh CYB561 (11721691_x_at) / RFU ANKRD19P (11752326_a_at) / Fold change /veh ANKRD19P (11752326_a_at) / RFU OR2T12 /// OR2T33 /// OR2T8 (11738714_s_at) / Fold change /veh OR2T12 /// OR2T33 /// OR2T8 (11738714_s_at) / RFU VCAN (11748164_a_at) / Fold change /veh VCAN (11748164_a_at) / RFU JSRP1 (11732532_at) / Fold change /veh JSRP1 (11732532_at) / RFU KRTAP10-11 (11738290_x_at) / Fold change /veh KRTAP10-11 (11738290_x_at) / RFU MYO3A (11730013_a_at) / Fold change /veh MYO3A (11730013_a_at) / RFU EBF3 (11725865_a_at) / Fold change /veh EBF3 (11725865_a_at) / RFU CAMK2N1 (11719241_x_at) / Fold change /veh CAMK2N1 (11719241_x_at) / RFU C5orf56 (11738088_a_at) / Fold change /veh C5orf56 (11738088_a_at) / RFU OLFML3 (11715873_a_at) / Fold change /veh OLFML3 (11715873_a_at) / RFU LOC100653217 /// NTM (11731650_a_at) / Fold change /veh LOC100653217 /// NTM (11731650_a_at) / RFU MAPK11 (11762145_a_at) / Fold change /veh MAPK11 (11762145_a_at) / RFU FIZ1 (11724087_x_at) / Fold change /veh FIZ1 (11724087_x_at) / RFU OASL (11726364_x_at) / Fold change /veh OASL (11726364_x_at) / RFU SOX15 (11748057_x_at) / Fold change /veh SOX15 (11748057_x_at) / RFU CD79A (11719716_a_at) / Fold change /veh CD79A (11719716_a_at) / RFU HIST1H1D (11736915_at) / Fold change /veh HIST1H1D (11736915_at) / RFU CASKIN2 (11723855_a_at) / Fold change /veh CASKIN2 (11723855_a_at) / RFU LOC730098 (11760151_x_at) / Fold change /veh LOC730098 (11760151_x_at) / RFU OR4N2 (11742367_at) / Fold change /veh OR4N2 (11742367_at) / RFU PRRT2 (11749266_a_at) / Fold change /veh PRRT2 (11749266_a_at) / RFU SNX32 (11753110_a_at) / Fold change /veh SNX32 (11753110_a_at) / RFU CDHR5 (11726645_a_at) / Fold change /veh CDHR5 (11726645_a_at) / RFU RCAN1 (11760418_a_at) / Fold change /veh RCAN1 (11760418_a_at) / RFU FAM167A (11723789_a_at) / Fold change /veh FAM167A (11723789_a_at) / RFU FAM26E (11764081_at) / Fold change /veh FAM26E (11764081_at) / RFU ISYNA1 (11749810_s_at) / Fold change /veh ISYNA1 (11749810_s_at) / RFU ACY1 (11761880_at) / Fold change /veh ACY1 (11761880_at) / RFU 11764098_at / Fold change /veh 11764098_at / RFU SAMD14 (11745864_x_at) / Fold change /veh SAMD14 (11745864_x_at) / RFU NPB (11741838_a_at) / Fold change /veh NPB (11741838_a_at) / RFU TMPRSS6 (11731388_a_at) / Fold change /veh TMPRSS6 (11731388_a_at) / RFU KRTAP10-2 (11738614_at) / Fold change /veh KRTAP10-2 (11738614_at) / RFU ARHGAP8 /// PRR5-ARHGAP8 (11727945_x_at) / Fold change /veh ARHGAP8 /// PRR5-ARHGAP8 (11727945_x_at) / RFU KRTAP5-7 /// NADSYN1 (11734609_at) / Fold change /veh KRTAP5-7 /// NADSYN1 (11734609_at) / RFU RASL12 (11751679_a_at) / Fold change /veh RASL12 (11751679_a_at) / RFU CDKN2B (11736163_a_at) / Fold change /veh CDKN2B (11736163_a_at) / RFU PRF1 (11729649_at) / Fold change /veh PRF1 (11729649_at) / RFU, ZNF638 /// ZNF638-IT1 / Fold change vs veh, ZNF638 /// ZNF638-IT1 / RFU, PANK3 / Fold change vs veh, PANK3 / RFU, SH3YL1 / Fold change vs veh, SH3YL1 / RFU, ZEB2 / Fold change vs veh, ZEB2 / RFU, NRIP1 / Fold change vs veh, NRIP1 / RFU, PTTG1IP / Fold change vs veh, PTTG1IP / RFU, CAPN2 / Fold change vs veh, CAPN2 / RFU, MED14 / Fold change vs veh, MED14 / RFU, SNORA58 / Fold change vs veh, SNORA58 / RFU, C1orf63 / Fold change vs veh, C1orf63 / RFU, LRRFIP1 / Fold change vs veh, LRRFIP1 / RFU, NDUFAF7 / Fold change vs veh, NDUFAF7 / RFU, SLC12A2 / Fold change vs veh, SLC12A2 / RFU, IBTK / Fold change vs veh, IBTK / RFU, ESF1 / Fold change vs veh, ESF1 / Fold change vs veh, TMEM50B / RFU, TAOK1 / Fold change vs veh, TAOK1 / RFU, ACBD3 / Fold change vs veh, ACBD3 / RFU, TMA16 / Fold change vs veh, TMA16 / RFU, RWDD3 / Fold change vs veh, RWDD3 / RFU, BCAT1 / Fold change vs veh, BCAT1 / RFU, EDEM3 / Fold change vs veh, EDEM3 / RFU, TMEM33 / Fold change vs veh, TMEM33 / RFU, WDR75 / Fold change vs veh, WDR75 / RFU, AHCTF1 / Fold change vs veh, AHCTF1 / RFU, TFRC / Fold change vs veh, TFRC / RFU, ZDHHC17 / Fold change vs veh, ZDHHC17 / RFU, NOM1 / Fold change vs veh, NOM1 / RFU, ARL8B / Fold change vs veh, ARL8B / RFU, ZBTB11 / Fold change vs veh, ZBTB11 / RFU, TAMM41 / Fold change vs veh, TAMM41 / RFU, KIAA1704 /// LOC100996395 / Fold change vs veh, KIAA1704 /// LOC100996395 / RFU, ING1 / Fold change vs veh, ING1 / RFU, TRMT61B / Fold change vs veh, TRMT61B / RFU, FUBP3 / Fold change vs veh, FUBP3 / RFU, TP53 / Fold change vs veh, TP53 / RFU, TNKS2 / Fold change vs veh, TNKS2 / RFU, ZFP14 / Fold change vs veh, ZFP14 / RFU, ACTR2 / Fold change vs veh, ACTR2 / RFU, PPP3R1 / Fold change vs veh, PPP3R1 / RFU, PIK3R1 / Fold change vs veh, PIK3R1 / RFU, HNRNPA1 / Fold change vs veh, HNRNPA1 / RFU, RNF170 / Fold change vs veh, RNF170 / RFU, ZNF28 / Fold change vs veh, ZNF28 / RFU, RNGTT / Fold change vs veh, RNGTT / RFU, OGT / Fold change vs veh, OGT / RFU, BRD1 / Fold change vs veh, BRD1 / RFU, MARS / Fold change vs veh, MARS / RFU, ZNF655 / Fold change vs veh, ZNF655 / RFU, FAHD1 / Fold change vs veh, FAHD1 / RFU, BDP1 / Fold change vs veh, BDP1 / RFU, LRRCC1 / Fold change vs veh, LRRCC1 / RFU, ARID1A / Fold change vs veh, ARID1A / RFU, ZNF146 / Fold change vs veh, ZNF146 / RFU, ZNF330 / Fold change vs veh, ZNF330 / RFU, GPN3 / Fold change vs veh, GPN3 / RFU, C9orf123 / Fold change vs veh, C9orf123 / RFU, N4BP2L2 / Fold change vs veh, N4BP2L2 / RFU, ARFIP1 / Fold change vs veh, ARFIP1 / RFU, FAM179B / Fold change vs veh, FAM179B / RFU, BCL10 / Fold change vs veh, BCL10 / RFU, UHRF1BP1L / Fold change vs veh, UHRF1BP1L / RFU, BET1 / Fold change vs veh, BET1 / RFU, CNOT2 / Fold change vs veh, CNOT2 / RFU, ZNF268 / Fold change vs veh, ZNF268 / Fold change vs veh, ZNF507 / RFU, DGCR2 / Fold change vs veh, DGCR2 / RFU, WDSUB1 / Fold change vs veh, WDSUB1 / Fold change vs veh, HSP90B1 /// MIR3652 / RFU, ADSS / Fold change vs veh, ADSS / RFU, GK / Fold change vs veh, GK / RFU, ZNF148 / Fold change vs veh, ZNF148 / RFU, TAF9 / Fold change vs veh, TAF9 / RFU, SLC1A5 / Fold change vs veh, SLC1A5 / RFU, SLMO2 / Fold change vs veh, SLMO2 / RFU, ABCC4 / Fold change vs veh, ABCC4 / RFU, LOC101060439 /// RAP1B / Fold change vs veh, LOC101060439 /// RAP1B / RFU, RFX7 / Fold change vs veh, RFX7 / RFU, GTPBP10 / Fold change vs veh, GTPBP10 / RFU, CNEP1R1 / Fold change vs veh, CNEP1R1 / RFU, BIVM-ERCC5 /// ERCC5 / Fold change vs veh, BIVM-ERCC5 /// ERCC5 / RFU, ILF3 / Fold change vs veh, ILF3 / RFU 11762660_at / Fold change /veh 11762660_at / RFU VCAN (11757783_s_at) / Fold change /veh VCAN (11757783_s_at) / RFU DDX43 (11728927_at) / Fold change /veh DDX43 (11728927_at) / RFU KRT8 (11758188_x_at) / Fold change /veh KRT8 (11758188_x_at) / RFU NKD1 (11759106_at) / Fold change /veh NKD1 (11759106_at) / RFU SRD5A1 (11742802_a_at) / Fold change /veh SRD5A1 (11742802_a_at) / RFU TPSAB1 /// TPSB2 (11721975_s_at) / Fold change /veh TPSAB1 /// TPSB2 (11721975_s_at) / RFU GSTM3 (11746129_a_at) / Fold change /veh GSTM3 (11746129_a_at) / RFU IL23R (11737362_x_at) / Fold change /veh IL23R (11737362_x_at) / RFU TMEM51 (11727254_a_at) / Fold change /veh TMEM51 (11727254_a_at) / RFU PIWIL2 (11732686_x_at) / Fold change /veh PIWIL2 (11732686_x_at) / RFU ORM1 (11744905_x_at) / Fold change /veh ORM1 (11744905_x_at) / RFU CCDC152 (11743942_at) / Fold change /veh CCDC152 (11743942_at) / RFU ECM1 (11717891_a_at) / Fold change /veh ECM1 (11717891_a_at) / RFU IL23R (11748794_a_at) / Fold change /veh IL23R (11748794_a_at) / RFU TNFAIP8L3 (11732012_x_at) / Fold change /veh TNFAIP8L3 (11732012_x_at) / RFU MBOAT4 (11741988_at) / Fold change /veh MBOAT4 (11741988_at) / RFU 11764193_at / Fold change /veh 11764193_at / RFU TMEM53 (11763286_at) / Fold change /veh TMEM53 (11763286_at) / RFU MAGEB2 (11727129_at) / Fold change /veh MAGEB2 (11727129_at) / RFU TMEM200A (11744735_a_at) / Fold change /veh TMEM200A (11744735_a_at) / RFU CCDC152 (11751479_a_at) / Fold change /veh CCDC152 (11751479_a_at) / RFU FAM211A (11726209_a_at) / Fold change /veh FAM211A (11726209_a_at) / RFU RGS16 (11746705_a_at) / Fold change /veh RGS16 (11746705_a_at) / RFU VCAN (11755009_s_at) / Fold change /veh VCAN (11755009_s_at) / RFU RHOB (11743442_s_at) / Fold change /veh RHOB (11743442_s_at) / RFU RGS16 (11720943_a_at) / Fold change /veh RGS16 (11720943_a_at) / RFU RGS16 (11720944_at) / Fold change /veh RGS16 (11720944_at) / RFU, VPS4B / Fold change vs veh, VPS4B / RFU, CREB1 / Fold change vs veh, CREB1 / RFU, DNAJC13 / Fold change vs veh, DNAJC13 / RFU, GNAQ / Fold change vs veh, GNAQ / RFU, CDK5R1 / Fold change vs veh, CDK5R1 / RFU, ZRANB3 / Fold change vs veh, ZRANB3 / RFU, CUL4A / Fold change vs veh, CUL4A / RFU, CCNY / Fold change vs veh, CCNY / RFU, UFL1 / Fold change vs veh, UFL1 / RFU, COG3 / Fold change vs veh, COG3 / RFU, DIAPH2 / Fold change vs veh, DIAPH2 / RFU, SKA2 / Fold change vs veh, SKA2 / RFU, AFF3 / Fold change vs veh, AFF3 / RFU, LMF1 / Fold change vs veh, LMF1 / RFU, IPO11 / Fold change vs veh, IPO11 / RFU, DFFB / Fold change vs veh, DFFB / RFU, FOXP1 / Fold change vs veh, FOXP1 / RFU, CARD8 / Fold change vs veh, CARD8 / RFU, STRN3 / Fold change vs veh, STRN3 / RFU, ADK / Fold change vs veh, ADK / RFU, RASSF2 / Fold change vs veh, RASSF2 / RFU, WIPF1 / Fold change vs veh, WIPF1 / RFU, LARP1B / Fold change vs veh, LARP1B / RFU, RASA1 / Fold change vs veh, RASA1 / RFU, RB1 / Fold change vs veh, RB1 / RFU, PPFIA1 / Fold change vs veh, PPFIA1 / RFU, MAT2A / Fold change vs veh, MAT2A / RFU, CCT5 / Fold change vs veh, CCT5 / RFU, WDR92 / Fold change vs veh, WDR92 / RFU, CUX1 / Fold change vs veh, CUX1 / RFU, TTC7A / Fold change vs veh, TTC7A / RFU, TMEM135 / Fold change vs veh, TMEM135 / RFU, DEPTOR / Fold change vs veh, DEPTOR / RFU, CPM / Fold change vs veh, CPM / RFU, DNAJB6 / Fold change vs veh, DNAJB6 / RFU, CACNA2D3 / Fold change vs veh, CACNA2D3 / RFU, DTX4 / Fold change vs veh, DTX4 / RFU, TFCP2 / Fold change vs veh, TFCP2 / RFU, GMCL1 /// GMCL1P1 / Fold change vs veh, GMCL1 /// GMCL1P1 / RFU, AEBP2 / Fold change vs veh, AEBP2 / RFU, SNHG1 /// SNORD22 /// SNORD25 /// SNORD26 /// SNORD27 /// SNORD28 /// SNORD29 /// SNORD31 / Fold change vs veh, SNHG1 /// SNORD22 /// SNORD25 /// SNORD26 /// SNORD27 /// SNORD28 /// SNORD29 /// SNORD31 / Fold change (Aza/veh), C12orf56 (ProbeSet 11735607_a_at) / Fold change (ACY-1035/veh), C12orf56 (ProbeSet 11735607_a_at) / Fold change (Aza/veh), FGFR1OP (ProbeSet 11751329_s_at) / Fold change (ACY-1035/veh), FGFR1OP (ProbeSet 11751329_s_at) / Fold change (Aza/veh), VPS36 (ProbeSet 11739960_a_at) / Fold change (ACY-1035/veh), VPS36 (ProbeSet 11739960_a_at) / RFU SYPL1 (11715823_x_at) / Fold change /veh SYPL1 (11715823_x_at) / RFU IGFBP7 (11715501_s_at) / Fold change /veh IGFBP7 (11715501_s_at) / RFU REEP3 (11722064_at) / Fold change /veh REEP3 (11722064_at) / RFU IGLL1 (11728026_x_at) / Fold change /veh IGLL1 (11728026_x_at): dose or concentration left out as unconfirmed
# Settings: ProbeSet 11749551_a_at; LIST B
structure (smiles),measurement,value
Nc1ccc(-c2cccs2)cc1NC(=O)c1ccc2c(c1)cc(C1CC1)n2CCN1CCOCC1 [ACY-1035],"RFU, RNGTT",53.54 RFU

# Reference: article PMC5218480 (PLoS ONE, 2017)
